Tested on: CDDP-resistant A549 clones (A549 #1-3), HCC827, H1299, H1650, H1975, HeLa, U2OS and WT HCT 116 cells
Assay: Cytofluorometric assessment of cell death, CDDP alone or combined with PN, panel of cell lines
Type: cell-based, human
Settings: sub-apoptotic dose of CDDP alone or combined with 2.5 mM PN
From the text: (A-C) Cytofluorometric assessment of cell death induced by the indicated sub-apoptotic dose of cisplatin (CDDP) alone or combined with PN in 3 distinct CDDP-resistant A549 clones (A549 #1-3, A), in 4 non-small cell lung cancer (NSCLC) cell lines other than A549 (HCC827, H1299, H1650 and H1975 cells, B), in cervical carcinoma HeLa cells, in osteosarcoma U2OS cells as well as in wild type (WT) or TP53^−/− colon carcinoma HCT 116 cells (C).
Unless otherwise specified, chemicals were purchased from Sigma-Aldrich (St. Louis, USA), culture media and supplements for cell culture from Gibco-Invitrogen (Carlsbad, USA) and plasticware from Corning (Corning, USA). Anti-human interleukin 6 (IL6, goat antiserum #AB-206-A) and IL6 receptor (IL6R, goat antiserum #AB-227-A) neutralizing antibodies were purchased by R&D Systems (Minneapolis, USA). Orlistat (Xenical®) was obtained from Roche (Basel, Switzerland). […]
To measure apoptosis-related parameters, living cells were labeled for 30 min at +37° C. with 40 nM 3,3′dihexyloxalocarbocyanine iodide (DiOC6(3), from Molecular Probes-Invitrogen, Eugene, USA), which quantifies the mitochondrial transmembrane potential (Δψm), plus 1 μg/mL propidium iodide (PI), which only accumulates in cells with ruptured plasma membrane {Galluzzi, 2009; Galluzzi, 2008; Galluzzi, 2007}. […]

Cc1ncc(CO)c(CO)c1O [PN, pyridoxine]
chemosensitization to CDDP in other cancer cell lines: exerted chemosensitizing effects
